Here are results for four molecules from ChEMBL document CHEMBL4819021, “Paratrimerins J-Y, Dimeric Coumarins Isolated from the Stems of Paramignya trimera” (J Nat Prod, 2021).

Activity calls are given as the source filed them. No cut-off for these calls is given here.

What all share (format): functional, cell-based
In assay [1] the test system is Huh-7. As to the kind of experiment: Cytotoxicity against human Huh-7 cells assessed as reduction in cell viability measured after 72 hrs by MTS assay. The conditions noted are these: Huh-7, 72 h. In general terms: Formazan colour is commonly taken as a measure of viable cells.
Assay [2] has as its system HT-1080. Kind of assay: Cytotoxicity against human HT-1080 cells assessed as reduction in cell viability measured after 72 hrs by MTS assay. The conditions noted are these: HT-1080, 72 h.
Assay [3] deals with HT-29. As to the kind of experiment: Cytotoxicity against human HT-29 cells harboring Ras/Raf mutant assessed as reduction in cell viability measured after 72 hrs by MTS assay. The conditions noted are these: HT-29, 72 h.
Assay [4] deals with SK-HEP1. Kind of assay: Cytotoxicity against human SK-HEP1 cells assessed as reduction in cell viability at 40 uM measured after 72 hrs by MTS assay.
For assay [5], the system named is COLO 205. As to the kind of experiment: Cytotoxicity against human COLO 205 cells assessed as reduction in cell viability at 40 uM measured after 72 hrs by MTS assay.
Assay [6] has as its system HCT-8. Kind of assay: Cytotoxicity against human HCT-8 cells assessed as reduction in cell viability at 40 uM measured after 72 hrs by MTS assay.
The test system of assay [7] is HCT-116. As to the kind of experiment: Cytotoxicity against human HCT-116 cells assessed as reduction in cell viability at 40 uM measured after 72 hrs by MTS assay.
For assay [8], the system named is KM12. As to the kind of experiment: Cytotoxicity against human KM12 cells assessed as reduction in cell viability at 40 uM measured after 72 hrs by MTS assay.
Assay [9] concerns RKO. As to the kind of experiment: Cytotoxicity against human RKO cells assessed as reduction in cell viability at 40 uM measured after 72 hrs by MTS assay.
Assay [10] concerns SW480. Kind of assay: Cytotoxicity against human SW480 cells assessed as reduction in cell viability at 40 uM measured after 72 hrs by MTS assay.
The test system of assay [11] is SW-620. Kind of assay: Cytotoxicity against human SW-620 cells assessed as reduction in cell viability at 40 uM measured after 72 hrs by MTS assay.
Assay [12] has as its system BT-549. Kind of assay: Cytotoxicity against human BT-549 cells assessed as reduction in cell viability at 40 uM measured after 72 hrs by MTS assay.
Assay [13] concerns HCC38. Kind of assay: Cytotoxicity against human HCC38 cells assessed as reduction in cell viability at 40 uM measured after 72 hrs by MTS assay.
Assay [14] has as its system HCC70. Kind of assay: Cytotoxicity against human HCC70 cells assessed as reduction in cell viability at 40 uM measured after 72 hrs by MTS assay.
Assay [15] relates to HCC1428. Kind of assay: Cytotoxicity against human HCC1428 cells assessed as reduction in cell viability at 40 uM measured after 72 hrs by MTS assay.
For assay [16], the system named is Hs-578T. Kind of assay: Cytotoxicity against human Hs-578T cells assessed as reduction in cell viability at 40 uM measured after 72 hrs by MTS assay.
Assay [17] concerns MDA-MB-231. As to the kind of experiment: Cytotoxicity against human MDA-MB-231 cells assessed as reduction in cell viability at 40 uM measured after 72 hrs by MTS assay.
Assay [18] concerns MDA-MB-435. As to the kind of experiment: Cytotoxicity against human MDA-MB-435 cells assessed as reduction in cell viability at 40 uM measured after 72 hrs by MTS assay.
Assay [19] concerns MDA-MB-468. Kind of assay: Cytotoxicity against human MDA-MB-468 cells assessed as reduction in cell viability at 40 uM measured after 72 hrs by MTS assay.
The subject of assay [20] is MCF7. As to the kind of experiment: Cytotoxicity against human MCF7 cells assessed as reduction in cell viability at 40 uM measured after 72 hrs by MTS assay.
Assay [21] relates to SK-BR-3. As to the kind of experiment: Cytotoxicity against human SK-BR-3 cells assessed as reduction in cell viability at 40 uM measured after 72 hrs by MTS assay.
The subject of assay [22] is T47D. As to the kind of experiment: Cytotoxicity against human T47D cells assessed as reduction in cell viability at 40 uM measured after 72 hrs by MTS assay.

The IC50 is the concentration that gives 50% inhibition. Regarding `CC(C)=CCC/C(C)=C/Cc1cc(/C=C/C(=O)O[C@@H](Cc2c(OCC=C(C)C)ccc3ccc(=O)oc23)C(C)(C)O)c(O)cc1O`, the half-inhibitory concentration (IC50) in assay [1] was determined as 14.9 µM; in assay [2] it was 18.4 µM; in assay [3] it was 22.5 µM.

For `CC1=C[C@@H](c2cc3ccc(=O)oc3cc2O[C@@H]2O[C@H](CO)[C@@H](O)[C@H](O)[C@H]2O)[C@@](C)(/C=C/c2cc3ccc(=O)oc3cc2O[C@@H]2O[C@H](COC3OC[C@@H](O)[C@H](O)[C@H]3O)[C@@H](O)[C@H](O)[C@H]2O)CC1` (stereo not given in full), the outcome in [4], in [5], in assay [6], in assay [7], in assay [8] and in assay [9] was inactive. Besides, the outcome in [10], in assay [11], in [12], in assay [13], in assay [14] and in [15] was inactive. Also, the result in assay [16], in assay [17], in [18], in assay [19], in [20] and in [21] was inactive. In addition, the result in assay [22] was inactive.

For the molecule `CC1=C[C@@H](c2cc3ccc(=O)oc3cc2O[C@@H]2O[C@H](CO)[C@@H](O)[C@H](O)[C@H]2O)[C@@](C)(/C=C/c2cc3ccc(=O)oc3cc2O[C@@H]2O[C@H](CO[C@@H]3OC[C@](O)(CO)[C@H]3O)[C@@H](O)[C@H](O)[C@H]2O)CC1`, the result in [4], in assay [5], in assay [6], in [7], in assay [8] and in [9] was inactive. Further, the outcome in assay [10], in assay [11], in [12], in assay [13], in [14] and in assay [15] was inactive. The outcome in assay [16], in [17], in assay [18], in assay [19], in assay [20] and in [21] was inactive. Besides, the outcome in [22] was inactive.

Turning to `CC1=C[C@H](c2cc3ccc(=O)oc3cc2O[C@@H]2O[C@H](COC3OC[C@@H](O)[C@H](O)[C@H]3O)[C@@H](O)[C@H](O)[C@H]2O)[C@@](C)(/C=C/c2cc3ccc(=O)oc3cc2O[C@@H]2O[C@H](CO)[C@@H](O)[C@H](O)[C@H]2O)CC1` (stereo not given in full), the outcome in assay [4], in [5], in [6], in assay [7], in assay [8] and in assay [9] was inactive. Besides, the outcome in [10], in assay [11], in assay [12], in assay [13], in assay [14] and in [15] was inactive. For the same molecule, the result in assay [16], in assay [17], in assay [18], in assay [19], in assay [20] and in assay [21] was inactive. The result in [22] was inactive.
